The test has as its system Pseudomonas aeruginosa (ATCC 27853). Description: Microbial in vitro assay 614030. Type of test: cell-based. Conditions: reference standard run with the assay. The protocol: The methods employed in this study were adapted from the scientific literature to maximize reliability and reproducibility. The reference standards were run as an integral part of each assay to ensure the validity of the results obtained. The assays were performed under conditions described below. The literature reference(s) for each assay are also provided as follows: Enza Di Modugno, Isabelle […]. […] Antimicrobial Agents Chemotherapy 3: 40-48; […]., Pursiano, […]. and Price, K. E. (1973) In Vitro Activity of the Tribactam GV 104326 against Gram-Positive, Gram-Negative, and Anaerobic Bacteria. Antimicrobial Agents and Chemotherapy, 38: 2362-2368, 1994; Enza Di Modugno, Isabelle […]. […] Antimicrobial Agents Chemotherapy 3: 40-48; and […]., Pursiano, […]. and Price, K. E. (1973) In vitro antibacterial activity of SM-7338, a carbapenem antibiotic with stability to dehydropeptidase I Antimicrobial Agents, Chemotherapy, 33 #2:215-222, 1989.

For the substance Gentamicin, the “CONCURRENT (reference compound data)” value was determined as 0.3 µg/mL.

Values taken from patent US20110257233A1, “BENZOISOTHIAZOLONES AS INHIBITORS OF PHOSPHOMANNOSE ISOMERASE” (Sanford-Burnham Medical Research Institute, priority 2010, published 2011).
